Measurements: ChEMBL document CHEMBL1201862, “PubChem BioAssay data set” (2004)
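Each compound was tested at five concentrations against cells in 96-well plates for 48 hours. GI50 = concentration required for 50% inhibition of growth.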 Active and inactive are the calls of the source. No stated cut-off is given here; in the data, active = GI50 up to about 1.1 µM and inactive = higher.

Tests used:
Assay in all cases: NCI anticancer screen, dose series, 48 h
M19-MEL = tested on: M19-MEL
SK-OV-3 = tested on: SK-OV-3
UO-31 = tested on: UO-31
RPMI-8226 = tested on: RPMI-8226
RXF 393 = tested on: RXF 393
NCI-H522 = tested on: NCI-H522
OVCAR-5 = tested on: OVCAR-5
OVCAR-3 = tested on: OVCAR-3
HOP-92 = tested on: HOP-92
HCC 2998 = tested on: HCC 2998
SW-620 = tested on: SW-620
HOP-62 = tested on: HOP-62
OVCAR-4 = tested on: OVCAR-4
KM-20L2 = tested on: KM-20L2
M14 = tested on: M14
SK-MEL-28 = tested on: SK-MEL-28
U-251 = tested on: U-251
OVCAR-8 = tested on: OVCAR-8
NCI-H226 = tested on: NCI-H226
IGROV-1 = tested on: IGROV-1
CCRF-CEM = tested on: CCRF-CEM
UACC-257 = tested on: UACC-257
SR = tested on: SR
MOLT-4 = tested on: MOLT-4
DMS-114 = tested on: DMS-114
COLO 205 = tested on: COLO 205
A549 = tested on: A549
HCT-15 = tested on: HCT-15
DLD-1 = tested on: DLD-1
EKVX = tested on: EKVX
SF-268 = tested on: SF-268
TK-10 = tested on: TK-10
K562 = tested on: K562
SK-MEL-5 = tested on: SK-MEL-5
LOX IMVI = tested on: LOX IMVI
KM12 = tested on: KM12
SNB-78 = tested on: SNB-78
SF-539 = tested on: SF-539
ACHN = tested on: ACHN
786-0 = tested on: 786-0
RXF 631 = tested on: RXF 631
UACC-62 = tested on: UACC-62
SF-295 = tested on: SF-295
SNB-75 = tested on: SNB-75
NCI-H460 = tested on: NCI-H460
NCI-H23 = tested on: NCI-H23
LXFL 529 = tested on: LXFL 529
Malme-3M = tested on: Malme-3M
SN12C = tested on: SN12C
SNB-19 = tested on: SNB-19
HT-29 = tested on: HT-29
XF498 = tested on: XF498
HCT-116 = tested on: HCT-116
CAKI-1 = tested on: CAKI-1
HOP-18 = tested on: HOP-18
A498 = tested on: A498
DMS-273 = tested on: DMS-273
HL-60 = tested on: HL-60
SK-MEL-2 = tested on: SK-MEL-2

SMILES: C#CCNC(=O)NCCCCC(NC(C)=O)C(=O)NCc1ccccc1 (stereo not given)
- GI50 (M19-MEL): > 100 µM (inactive)
- GI50 (SK-OV-3): > 100 µM (inactive)
- GI50 (UO-31): > 100 µM (inactive)
- GI50 (RPMI-8226): > 100 µM (inactive)
- GI50 (RXF 393): > 100 µM (inactive)
- GI50 (NCI-H522): > 100 µM (inactive)
- GI50 (OVCAR-5): > 100 µM (inactive)
- GI50 (OVCAR-3): > 100 µM (inactive)
- GI50 (HOP-92): > 100 µM (inactive)
- GI50 (HCC 2998): > 100 µM (inactive)
- GI50 (SW-620): > 100 µM (inactive)
- GI50 (HOP-62): > 100 µM (inactive)
- GI50 (OVCAR-4): > 100 µM (inactive)
- GI50 (KM-20L2): > 100 µM (inactive)
- GI50 (M14): > 100 µM (inactive)
- GI50 (SK-MEL-28): > 100 µM (inactive)
- GI50 (U-251): > 100 µM (inactive)
- GI50 (OVCAR-8): > 100 µM (inactive)
- GI50 (NCI-H226): > 100 µM (inactive)
- GI50 (IGROV-1): > 100 µM (inactive)
- GI50 (CCRF-CEM): > 100 µM (inactive)
- GI50 (UACC-257): > 100 µM (inactive)
- GI50 (SR): > 100 µM (inactive)
- GI50 (MOLT-4): > 100 µM (inactive)
- GI50 (DMS-114): > 100 µM (inactive)
- GI50 (COLO 205): > 100 µM (inactive)
- GI50 (A549): > 100 µM (inactive)
- GI50 (HCT-15): > 100 µM
- GI50 (DLD-1): > 100 µM (inactive)
- GI50 (EKVX): > 100 µM (inactive)
- GI50 (SF-268): > 100 µM (inactive)
- GI50 (TK-10): > 100 µM (inactive)
- GI50 (K562): > 100 µM (inactive)
- GI50 (SK-MEL-5): > 100 µM (inactive)
- GI50 (LOX IMVI): > 100 µM (inactive)
- GI50 (KM12): > 100 µM (inactive)
- GI50 (SNB-78): > 100 µM (inactive)
- GI50 (SF-539): > 100 µM (inactive)
- GI50 (ACHN): > 100 µM (inactive)
- GI50 (786-0): > 100 µM (inactive)
- GI50 (RXF 631): > 100 µM (inactive)
- GI50 (UACC-62): > 100 µM (inactive)
- GI50 (SF-295): > 100 µM (inactive)
- GI50 (SNB-75): > 100 µM (inactive)
- GI50 (NCI-H460): > 100 µM (inactive)
- GI50 (NCI-H23): > 100 µM (inactive)
- GI50 (LXFL 529): > 100 µM (inactive)
- GI50 (Malme-3M): > 100 µM (inactive)
- GI50 (SN12C): > 100 µM (inactive)
- GI50 (SNB-19): > 100 µM (inactive)
- GI50 (HT-29): > 100 µM (inactive)
- GI50 (XF498): 0.101 µM (active)
- GI50 (HCT-116): > 100 µM (inactive)
- GI50 (CAKI-1): > 100 µM (inactive)
- GI50 (HOP-18): > 100 µM (inactive)
- GI50 (A498): > 100 µM (inactive)

SMILES: O=C(CCN(C(=O)O)S(=O)(=O)c1ccc(NC(=O)c2ccccc2)cc1)Nc1ccccc1
- GI50 (M19-MEL): > 76.9 µM (inactive)
- GI50 (SK-OV-3): > 100 µM (inactive)
- GI50 (UO-31): > 100 µM (inactive)
- GI50 (RPMI-8226): > 64.1 µM (inactive)
- GI50 (RXF 393): > 100 µM (inactive)
- GI50 (NCI-H522): > 100 µM (inactive)
- GI50 (OVCAR-5): > 100 µM (inactive)
- GI50 (OVCAR-3): > 100 µM (inactive)
- GI50 (HOP-92): > 100 µM (inactive)
- GI50 (HCC 2998): > 100 µM (inactive)
- GI50 (DMS-273): > 65.3 µM (inactive)
- GI50 (SW-620): > 55 µM (inactive)
- GI50 (HOP-62): > 100 µM (inactive)
- GI50 (OVCAR-4): > 100 µM (inactive)
- GI50 (HL-60): > 61.8 µM (inactive)
- GI50 (KM-20L2): > 100 µM (inactive)
- GI50 (M14): > 100 µM (inactive)
- GI50 (SK-MEL-28): > 100 µM (inactive)
- GI50 (U-251): > 75.7 µM (inactive)
- GI50 (OVCAR-8): > 96.2 µM (inactive)
- GI50 (NCI-H226): > 100 µM (inactive)
- GI50 (IGROV-1): > 100 µM (inactive)
- GI50 (CCRF-CEM): > 61.7 µM (inactive)
- GI50 (UACC-257): > 65.3 µM (inactive)
- GI50 (SR): 15.8 µM (inactive)
- GI50 (MOLT-4): > 64.6 µM (inactive)
- GI50 (DMS-114): > 56 µM (inactive)
- GI50 (COLO 205): > 61.4 µM (inactive)
- GI50 (A549): > 46.5 µM (inactive)
- GI50 (HCT-15): > 58.6 µM
- GI50 (DLD-1): > 79.8 µM (inactive)
- GI50 (EKVX): > 100 µM (inactive)
- GI50 (SF-268): > 100 µM (inactive)
- GI50 (TK-10): > 100 µM (inactive)
- GI50 (K562): > 59.3 µM (inactive)
- GI50 (SK-MEL-5): > 100 µM (inactive)
- GI50 (LOX IMVI): > 57.7 µM (inactive)
- GI50 (KM12): > 100 µM (inactive)
- GI50 (SNB-78): > 100 µM (inactive)
- GI50 (SF-539): > 100 µM (inactive)
- GI50 (ACHN): > 100 µM (inactive)
- GI50 (786-0): > 100 µM (inactive)
- GI50 (RXF 631): > 100 µM (inactive)
- GI50 (UACC-62): > 61.9 µM (inactive)
- GI50 (SF-295): > 100 µM (inactive)
- GI50 (SNB-75): > 100 µM (inactive)
- GI50 (NCI-H460): > 61.9 µM (inactive)
- GI50 (NCI-H23): > 100 µM (inactive)
- GI50 (LXFL 529): > 100 µM (inactive)
- GI50 (Malme-3M): > 100 µM (inactive)
- GI50 (SN12C): > 100 µM (inactive)
- GI50 (SNB-19): > 100 µM (inactive)
- GI50 (HT-29): > 94.2 µM (inactive)
- GI50 (SK-MEL-2): > 100 µM (inactive)
- GI50 (XF498): > 100 µM (inactive)
- GI50 (HCT-116): > 56.6 µM (inactive)
- GI50 (CAKI-1): > 100 µM (inactive)
- GI50 (HOP-18): > 17.1 µM (inactive)
- GI50 (A498): > 100 µM (inactive)
